From the supplement of paper PMC10307832

Assays:
Test in all cases: relative viability (nuclei count vs DMSO), 5 days (fraction); higher = more cells survive
COR-L23 = system: COR-L23
Procedure, shortened: (§1)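 Five library-drug doses in √10 steps were combined with a fixed anchor-drug dose, or a single drug was given alone, by pin tool to lung cancer cell lines in 1536-well plates the day after seeding. Nuclei were stained and counted after 5 days. Relative viability is the nuclei count in treated wells over that in vehicle wells, taken as the median of duplicate plates.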

NCI-H1793 = system: NCI-H1793
Procedure, shortened: as §1

EMC-BAC-2 = system: EMC-BAC-2
Procedure, shortened: as §1

NCI-H23 = system: NCI-H23
Procedure, shortened: as §1

NCI-H358 = system: NCI-H358
Procedure, shortened: as §1

NCI-H1437 = system: NCI-H1437
Procedure, shortened: as §1

NCI-H2342 = system: NCI-H2342
Procedure, shortened: as §1

NCI-H1915 = system: NCI-H1915
Procedure, shortened: as §1

SK-MES-1 = system: SK-MES-1
Procedure, shortened: as §1

NCI-H2023 = system: NCI-H2023
Procedure, shortened: as §1

NCI-H2009 = system: NCI-H2009
Procedure, shortened: as §1

NCI-H650 = system: NCI-H650
Procedure, shortened: as §1

NCI-H1792 = system: NCI-H1792
Procedure, shortened: as §1

HCC-366 = system: HCC-366
Procedure, shortened: as §1

201T = system: 201T
Procedure, shortened: as §1

COR-L 105 = system: COR-L 105
Procedure, shortened: as §1

LC-2-ad = system: LC-2-ad
Procedure, shortened: as §1

HCC-15 = system: HCC-15
Procedure, shortened: as §1

PC-14 = system: PC-14
Procedure, shortened: as §1

NCI-H1755 = system: NCI-H1755
Procedure, shortened: as §1

NCI-H1395 = system: NCI-H1395
Procedure, shortened: as §1

NCI-H2347 = system: NCI-H2347
Procedure, shortened: as §1

With `Cc1cn(-c2cc(NC(=O)c3ccc(C)c(Nc4nccc(-c5cccnc5)n4)c3)cc(C(F)(F)F)c2)cn1` [Nilotinib] + COc1cccc2cc(-c3nc([C@H]4CC[C@H](C(=O)O)CC4)n4ncnc(N)c34)[nH]c12 [OSI-027] (partner 0.5 µM) the relative viability (COR-L23; first compound 0.001 µM) was 0.622, the relative viability (COR-L23; first compound 0.003162 µM) was 0.957 and the relative viability (COR-L23; first compound 0.01 µM) was 0.92. For the same compound, the relative viability (COR-L23; first compound 0.03162 µM) was 0.462, the relative viability (COR-L23; first compound 0.1 µM) was 0.596 and the relative viability (NCI-H1793; first compound 0.001 µM) was 0.269. It also gave a relative viability (NCI-H1793; first compound 0.003162 µM) of 0.261, a relative viability (NCI-H1793; first compound 0.01 µM) of 0.223 and a relative viability (NCI-H1793; first compound 0.03162 µM) of 0.188. The relative viability (NCI-H1793; first compound 0.1 µM) was 0.173, the relative viability (EMC-BAC-2; first compound 0.001 µM) was 0.348 and the relative viability (EMC-BAC-2; first compound 0.003162 µM) was 0.387. The relative viability (EMC-BAC-2; first compound 0.01 µM) was 0.426, the relative viability (EMC-BAC-2; first compound 0.03162 µM) was 0.345 and the relative viability (EMC-BAC-2; first compound 0.1 µM) was 0.354. It also gave a relative viability (NCI-H23; first compound 0.001 µM) of 0.58, a relative viability (NCI-H23; first compound 0.003162 µM) of 0.418 and a relative viability (NCI-H23; first compound 0.01 µM) of 0.418. The relative viability (NCI-H23; first compound 0.03162 µM) was 0.361, the relative viability (NCI-H23; first compound 0.1 µM) was 0.412 and the relative viability (NCI-H358; first compound 0.001 µM) was 0.708. It also gave a relative viability (NCI-H358; first compound 0.003162 µM) of 1.09, a relative viability (NCI-H358; first compound 0.01 µM) of 0.655 and a relative viability (NCI-H358; first compound 0.03162 µM) of 0.666. It also gave a relative viability (NCI-H358; first compound 0.1 µM) of 0.252, a relative viability (NCI-H1437; first compound 0.001 µM) of 0.826 and a relative viability (NCI-H1437; first compound 0.003162 µM) of 0.815. It also gave a relative viability (NCI-H1437; first compound 0.01 µM) of 0.876, a relative viability (NCI-H1437; first compound 0.03162 µM) of 0.619 and a relative viability (NCI-H1437; first compound 0.1 µM) of 0.902. For the same compound, the relative viability (NCI-H2342; first compound 0.001 µM) was 0.605, the relative viability (NCI-H2342; first compound 0.003162 µM) was 0.618 and the relative viability (NCI-H2342; first compound 0.01 µM) was 0.558. It also gave a relative viability (NCI-H2342; first compound 0.03162 µM) of 0.536, a relative viability (NCI-H2342; first compound 0.1 µM) of 0.518 and a relative viability (NCI-H1915; first compound 0.001 µM) of 0.552. The relative viability (NCI-H1915; first compound 0.003162 µM) was 0.659, the relative viability (NCI-H1915; first compound 0.01 µM) was 0.61 and the relative viability (NCI-H1915; first compound 0.03162 µM) was 0.567. It also gave a relative viability (NCI-H1915; first compound 0.1 µM) of 0.338, a relative viability (SK-MES-1; first compound 0.001 µM) of 0.474 and a relative viability (SK-MES-1; first compound 0.003162 µM) of 0.544. The relative viability (SK-MES-1; first compound 0.01 µM) was 0.662, the relative viability (SK-MES-1; first compound 0.03162 µM) was 0.342 and the relative viability (SK-MES-1; first compound 0.1 µM) was 0.327. It also gave a relative viability (NCI-H2023; first compound 0.001 µM) of 0.303, a relative viability (NCI-H2023; first compound 0.003162 µM) of 0.3 and a relative viability (NCI-H2023; first compound 0.01 µM) of 0.313. The relative viability (NCI-H2023; first compound 0.03162 µM) was 0.277, the relative viability (NCI-H2023; first compound 0.1 µM) was 0.195 and the relative viability (NCI-H2009; first compound 0.001 µM) was 0.486. For the same compound, the relative viability (NCI-H2009; first compound 0.003162 µM) was 0.624, the relative viability (NCI-H2009; first compound 0.01 µM) was 0.765 and the relative viability (NCI-H2009; first compound 0.03162 µM) was 0.556. It also gave a relative viability (NCI-H2009; first compound 0.1 µM) of 0.357, a relative viability (NCI-H650; first compound 0.001 µM) of 0.406 and a relative viability (NCI-H650; first compound 0.003162 µM) of 0.526. For the same compound, the relative viability (NCI-H650; first compound 0.01 µM) was 0.486, the relative viability (NCI-H650; first compound 0.03162 µM) was 0.441 and the relative viability (NCI-H650; first compound 0.1 µM) was 0.362. It also gave a relative viability (NCI-H1792; first compound 0.001 µM) of 0.503, a relative viability (NCI-H1792; first compound 0.003162 µM) of 0.473 and a relative viability (NCI-H1792; first compound 0.01 µM) of 0.667. For the same compound, the relative viability (NCI-H1792; first compound 0.1 µM) was 0.555, the relative viability (HCC-366; first compound 0.001 µM) was 0.644 and the relative viability (HCC-366; first compound 0.003162 µM) was 0.93. The relative viability (HCC-366; first compound 0.01 µM) was 0.663, the relative viability (HCC-366; first compound 0.03162 µM) was 0.203 and the relative viability (HCC-366; first compound 0.1 µM) was 0.147. For the same compound, the relative viability (201T; first compound 0.001 µM) was 0.734, the relative viability (201T; first compound 0.003162 µM) was 0.666 and the relative viability (201T; first compound 0.01 µM) was 0.77. It also gave a relative viability (201T; first compound 0.03162 µM) of 0.317, a relative viability (201T; first compound 0.1 µM) of 0.667 and a relative viability (COR-L 105; first compound 0.001 µM) of 0.831. The relative viability (COR-L 105; first compound 0.003162 µM) was 0.683, the relative viability (COR-L 105; first compound 0.01 µM) was 0.741 and the relative viability (COR-L 105; first compound 0.03162 µM) was 0.577. It also gave a relative viability (COR-L 105; first compound 0.1 µM) of 0.586, a relative viability (LC-2-ad; first compound 0.001 µM) of 0.739 and a relative viability (LC-2-ad; first compound 0.003162 µM) of 0.909. For the same compound, the relative viability (LC-2-ad; first compound 0.01 µM) was 0.795, the relative viability (LC-2-ad; first compound 0.03162 µM) was 0.728 and the relative viability (LC-2-ad; first compound 0.1 µM) was 0.472. It also gave a relative viability (HCC-15; first compound 0.001 µM) of 0.562, a relative viability (HCC-15; first compound 0.003162 µM) of 0.778 and a relative viability (HCC-15; first compound 0.01 µM) of 0.775. It also gave a relative viability (HCC-15; first compound 0.03162 µM) of 0.435, a relative viability (HCC-15; first compound 0.1 µM) of 0.306 and a relative viability (PC-14; first compound 0.001 µM) of 0.611. For the same compound, the relative viability (PC-14; first compound 0.003162 µM) was 1.03, the relative viability (PC-14; first compound 0.01 µM) was 0.846 and the relative viability (PC-14; first compound 0.03162 µM) was 0.312. For the same compound, the relative viability (PC-14; first compound 0.1 µM) was 0.254, the relative viability (NCI-H1755; first compound 0.001 µM) was 0.792 and the relative viability (NCI-H1755; first compound 0.003162 µM) was 0.617. It also gave a relative viability (NCI-H1755; first compound 0.01 µM) of 0.74, a relative viability (NCI-H1755; first compound 0.03162 µM) of 0.553 and a relative viability (NCI-H1755; first compound 0.1 µM) of 0.383. The relative viability (NCI-H1395; first compound 0.001 µM) was 0.673, the relative viability (NCI-H1395; first compound 0.003162 µM) was 0.467 and the relative viability (NCI-H1395; first compound 0.01 µM) was 0.579. It also gave a relative viability (NCI-H1395; first compound 0.03162 µM) of 0.612, a relative viability (NCI-H1395; first compound 0.1 µM) of 0.416 and a relative viability (NCI-H2347; first compound 0.001 µM) of 0.512. It also gave a relative viability (NCI-H2347; first compound 0.003162 µM) of 0.429, a relative viability (NCI-H2347; first compound 0.01 µM) of 0.388 and a relative viability (NCI-H2347; first compound 0.03162 µM) of 0.364. For the same compound, the relative viability (NCI-H2347; first compound 0.1 µM) was 0.419.
